Results as given in patent publication US10752921B2, “Enzymes and methods for styrene synthesis” (Phytogene, Inc., priority 2012, dated 2020).
Entries after “also recorded” stand apart in the source; their conditions may differ.

Legend:
[1] = target: T1, FDC1 (Saccharomyces cerevisiae, UniProt Q03034); assay: Substrate specificity of FDC1; format: biochemical; conditions: 0.2 mM substrate, 0.5 mg purified FDC1, 5 minutes at 30° C., pH 6.5
T1 construct: N-terminal 6xHis leader of vector pDEST17 (own knowledge of the vector); made in house; host or cells: E. coli BL21 (DE3)
T1 sequence (Q03034 1-503): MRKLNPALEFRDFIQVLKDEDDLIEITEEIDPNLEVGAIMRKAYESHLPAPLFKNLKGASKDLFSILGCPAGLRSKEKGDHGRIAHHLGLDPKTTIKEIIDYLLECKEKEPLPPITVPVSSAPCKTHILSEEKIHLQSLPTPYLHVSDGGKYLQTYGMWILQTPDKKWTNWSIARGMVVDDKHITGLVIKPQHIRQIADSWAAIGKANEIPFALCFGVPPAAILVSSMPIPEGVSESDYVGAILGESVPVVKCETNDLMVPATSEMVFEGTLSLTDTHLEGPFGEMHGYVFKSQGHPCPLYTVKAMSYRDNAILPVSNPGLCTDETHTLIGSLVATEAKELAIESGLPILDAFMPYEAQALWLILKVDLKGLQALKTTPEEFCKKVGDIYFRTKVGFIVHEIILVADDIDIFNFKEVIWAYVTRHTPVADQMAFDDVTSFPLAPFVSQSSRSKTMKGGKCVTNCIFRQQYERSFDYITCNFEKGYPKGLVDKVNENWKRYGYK
Description: The reaction mixtures were then incubated for 5 minutes at 30° C. After the reaction 1 mL of propanol was added to the reaction mixtures to solubilize styrene. The experimental negative control used the same conditions except the reaction mixture contained no substrate.

[2] = target: T1, FDC1; assay: Effect of metal ions on FDC1 activity; format: biochemical; conditions: 10 mM metal ion, 1.4 mM tCA, purified FDC1, 5 minutes at 30° C.
Description: (§1) After the reaction, 1 mL of propanol was added to the reaction mixtures to solubilize styrene. The experimental control used the same conditions except the reaction mixture contained no metal ions. The experimental negative control used the same conditions except the reaction mixture contained no substrate.
as §1, with “ions or EDT A.” for “ions.”

[3] = tested on: styrene production; assay: Fermentation of E. coli with PAL2-FDC fusion with or without srpABC pump, Phe as substrate; format: cell-based; conditions: control contains only the fusion of PAL2 and FDC
Description: Some bacteria have developed multiple mechanisms to adapt unfavorable conditions. For example, Pseudomonas strains have about three strategies for addressing organic solvent toxicity, i.e. modified membrane structure, active efflux pumps, and enzymatic detoxification. Here, a recombinant E. coli host expressing an efflux pump (called solvent-resistant-pump) was produced. The pump, a member of the ABC-transporter family, is composed of three subunits, srpA, periplasmic linker; srpB, inner membrane transporter; and srpC, out-membrane channels. The full-length of the srpABC pump sequence (˜6 kb) was cloned from the genomic DNA of P. putida. The clone was first inserted to pENTR vector with Zeocin resistance and then to E. coli expression vector pCONA-2-DEST with Kanamycin resistance.
Finally, the pump was transformed to the E. coli strain BL21 (DE3) containing the fusion of PAL2 and FDC which is resistant to Ampicillin. After the test expression of 5 clones in flasks, one clone was chosen for further experiment with fermenter. Fifty milliliters of overnight culture were inoculated in 1.5 L LB medium containing appropriate antibiotics. When cells reach an OD600˜0.8, 5 mM of IPTG was added to the culture for induction. […] Samples from the overnight fermentation (˜16 hrs) were taken and analyzed by HPLC in coupling with an Acclaim RSLC C18 column and detected at 280 nm. […]

[4] = target: T1, FDC1; assay: Kinetic analysis of purified wild type FDC1 (tCA to styrene, HPLC); format: biochemical; conditions: for Km / Vmax: tCA as substrate (100-2000 μM), 0.5 mg purified protein, 5 min at 30° C.
Description: The standard reaction mixture for decarboxylation consisted of 25 mM potassium phosphate buffer (pH 6.5) containing 5 mM dithiothreitol, 1.4 mM trans-cinnamic acid and enzyme (0.50 mg) to a final volume of 1.0 mL. The reaction was started by the addition of the enzyme and was incubated at 30° C. for 5 min. The reaction was stopped by adding 24 μl of glacial acetic acid (17.4N) after which 2-propanol was added in equal volume to the reaction mixture in order to solubilize the product. The amount of styrene produced was measured by HPLC using a Dionex Ultimate3000 UHPLC equipped with an auto sampler, diode array (UV/Vis) detector, and reverse phase Acclaim 120 C18 column (2.1×150 […] Dionex USA). Samples (10 μl) were injected for analyses at a total constant flow rate of 0.6 ml/minute. The samples were resolved in 0.15% acetic acid (A) with an increasing concentration gradient of acetonitrile containing 0.15% acetic acid (B) for 0 to 4 min, 5%; 4 to 5 minutes, 5 to 40%; 5 to 7 min, 40 to 45%; 7 to 8 min, 45 to 85%; 8 to 12 min, 85 to 95%; 12 to 14 minutes, 95 to 5% at a flow rate of […]. The specific activity was expressed in U (nmol styrene)·mg^−1·min^−1.
To examine the catalytic efficiency of this protein, kinetic studies of FDC1 was conducted using tCA as the substrate. […] The reactions were performed in a total of 1.0 mL standard reaction mixture with 0.5 mg purified protein, and were allowed to proceed for 5 min at 30° C. The styrene was extracted with 250 μL butanol. The experimental negative control used the same conditions except the reaction mixture contained no substrate. Activities were quantified by standard assay method. Duplicate assays were performed and averaged. The Vmax and Km were determined by nonlinear regression analysis of the velocity-concentration data fit to the Michaelis-Menten equation.

[5] = tested on: styrene production; assay: Styrene production by wild type FDC1 in anaerobic versus aerobic condition; format: cell-based
Description: Production of styrene by maintaining the culture in an aerobic environment was conducted. […] Using the STRATA-X® column, we can trap the volatile styrene and can maintain aerobic conditions.

[6] = target: T1, FDC1; assay: Temperature stability of FDC1; format: biochemical
Description: After incubation at various temperatures, an aliquot of protein (42 mg) was added to 25 mM potassium phosphate buffer pH 6.5, 5 mM DTT, and 1.4 mM tCA to a final volume of 1 mL. The reaction mixtures were incubated for 8 minutes at 30° C. The styrene was extracted with 250 μl butanol and quantified by HPLC using C18 column. The experimental negative control used the same conditions except the reaction mixture contained no substrate. The enzyme was stable at 50° C. (FIG. 7).
After the protein was incubated for various times, an aliquot (42 mg) was added to 25 mM potassium phosphate buffer pH 6.5, 5 mM DTT, and 1.4 mM tCA to a final volume of 1 mL. The reaction mixtures were then incubated for 8 minutes at 30° C. Styrene was extracted by adding 250 μL butanol to the reaction mixtures and quantified by HPLC. The experimental negative control used the same conditions except the reaction mixture contained no substrate. The protein was stable at 50° C. for 2 hr (FIG. 8).

[7] = target: T1, FDC1; assay: pH stability of FDC1; format: biochemical; conditions: incubated for 30 minutes at pH 6.0 prior to the reaction
Description: The protein (crude extract, 586 μL) was added to 112 μL of 500 mM buffers at pH values of 5, 6, 7, 8, 9, 10, and 11, and incubated at 30° C. for 30 minutes. After treated in various pH buffers, an aliquot of protein (42 mg) was added to a final concentration of 100 mM potassium phosphate buffer pH 6.5, 5 mM DTT, 1.4 mM cinnamic acid and brought up to a final volume of 2 mL. The reaction mixture was then incubated for 8 minutes at 30° C. The styrene was extracted by the addition of 250 μL butanol. The experimental negative control used the same conditions except the reaction mixture contained no substrate. […] This protein is stable and active in a wide range of pH and can be used for industrial production of styrene.

[8] = tested on: styrene production; assay: Expression of FDC-PAL2 fusion protein in E. coli, styrene in medium; format: cell-based; conditions: expressed in E. coli
Description: Artificial channels were included in the styrene production. To construct the fusion protein of PAL2 and FDC using Gateway technology, four primers were designed for PCR amplification. […] The FDC gene (˜1.5 kb) and the PAL2 gene (2.2 kb) were amplified using the above primers and cloned into the Gateway vector pDEST17. The constructs of the fusion protein of PAL2 and FDC were transformed to BL21(DE3). Fusion proteins of FDC mutant and PAL also can be obtained by the above process.
This fusion protein produced styrene at an amount that was about 6-fold higher than that of FDC expressing in E. coli (95 mg/Lin medium). This amount of styrene was also much higher than that of non-fused proteins of PAL2 and FDC (expressed in yeast, with 69 mg/L styrene detected).

COc1ccc(OC)c(C=CC(=O)O)c1 [2,5-dimethoxycinnamic acid]
activity compared with that of tCA (relative activity) [1]: did not show any activity

O=C(O)C=Cc1ccccc1O [2-hydroxycinnamic acid]
activity compared with that of tCA (relative activity) [1]: did not show any activity

Cc1ccccc1C=CC(=O)O [2-methylcinnamic acid]
activity compared with that of tCA (relative activity) [1]: 35%

COc1ccc(C=CC(=O)O)cc1OC [3,4-dimethoxycinnamic acid]
activity compared with that of tCA (relative activity) [1]: did not show any activity

O=C(O)C=Cc1cccc(O)c1 [3-hydroxycinnamic acid]
activity compared with that of tCA (relative activity) [1]: did not show any activity

O=C(O)C=Cc1ccc(O)cc1 [4-hydroxycinnamic acid]
activity compared with that of tCA (relative activity) [1]: 68%

[Ca+2].[Cl-].[Cl-] [Ca^2+, CaCl2]
effect of metal ions on FDC1 activity [2]: increased the activity of FDC1

[Cl][Fe]([Cl])[Cl] [Fe^3+, FeCl3]
effect of metal ions on FDC1 activity [2]: increased the activity of FDC1

O=S(=O)([O-])[O-].[Mg+2] [Mg^2+, MgSO4]
effect of metal ions on FDC1 activity [2]: increased the activity of FDC1

O=S(=O)([O-])[O-].[Zn+2] [Zn^2+, ZnSO4]
effect of metal ions on FDC1 activity [2]: increased the activity of FDC1

COc1cc(/C=C/C(=O)O)ccc1O [ferulic acid]
activity compared with that of tCA (relative activity) [1]: 57%

O=C(O)/C=C/c1ccccc1 [t-cinnamic acid, trans-cinnamic acid]
activity compared with that of tCA (relative activity) [1]: 100%

ABC-transporter: solvent-resistant efflux pump srpABC cloned from P. putida, subunits srpA, srpB, srpC
styrene production with ABC-transporter compared to control without [3]: significantly increased; also recorded: enhanced nearly four times

B1: FDC1: Saccharomyces cerevisiae cinnamic acid decarboxylase, also termed ferulic acid decarboxylase; 503 amino acids, SEQ ID NO:8 (protein, listed as Saccharomyces cerevisiae)
chain: MRKLNPALEFRDFIQVLKDEDDLIEITEEIDPNLEVGAIMRKAYESHLPAPLFKNLKGASKDLFSILGCPAGLRSKEKGDHGRIAHHLGLDPKTTIKEIIDYLLECKEKEPLPPITVPVSSAPCKTHILSEEKIHLQSLPTPYLHVSDGGKYLQTYGMWILQTPDKKWTNWSIARGMVVDDKHITGLVIKPQHIRQIADSWAAIGKANEIPFALCFGVPPAAILVSSMPIPEGVSESDYVGAILGESVPVVKCETNDLMVPATSEMVFEGTLSLTDTHLEGPFGEMHGYVFKSQGHPCPLYTVKAMSYRDNAILPVSNPGLCTDETHTLIGSLVATEAKELAIESGLPILDAFMPYEAQALWLILKVDLKGLQALKTTPEEFCKKVGDIYFRTKVGFIVHEIILVADDIDIFNFKEVIWAYVTRHTPVADQMAFDDVTSFPLAPFVSQSSRSKTMKGGKCVTNCIFRQQYERSFDYITCNFEKGYPKGLVDKVNENWKRYGYK
catalytic efficiency ([4]; tCA as substrate): 8.4 M^−1 S^−1 | Km ([4]; listed as wild type FDC): ~688 µM | Vmax ([4]; listed as wild type FDC): about 6.17 nmol·mg^−1·min^−1 | Km ([4]; listed as wild type FDC1): 688 µM | Vmax ([4]; listed as wild type FDC1): 6.17 nmol/mg/min | amount of styrene in anaerobic condition compared to aerobic condition [5]: half the amount of styrene | activity retained ([6]; after incubation at 50° C. for about 2 hours): 100% | stability at 50° C. over time ([6]; crude extract incubated at 50° C. for 2 hr): stable | temperature stability ([6]; incubated 30 minutes at 50° C. prior to reaction): stable | relative activity after incubation at 50° C. ([6]; incubated at 50° C. for 30 minutes prior to the reaction): 100% | relative activity after incubation at pH 6.0 [7]: 100% | styrene in medium [8]: 95 mg/L
